Test results published in ChEMBL document CHEMBL1154847, “Steroidal saponins from Chlorophytum orchidastrum” (J Nat Prod, 2010).

Experiments:
HT-29 = assay: Cytotoxicity against human HT-29 cells by MTT assay; assay type: functional, cell-based
HCT-116 = assay: Cytotoxicity against human HCT116 cells by MTT assay; assay type: functional, cell-based

Row | SMILES | IC50 (HT-29) [µM] | IC50 (HCT-116) [µM]
1 | C[C@H]1CC[C@@]2(OC1)O[C@H]1C[C@H]3[C@@H]4CC[C@H]5C[C@@H](O[C@@H]6[C@@H](O)[C@H](OC[C@H]7O[C@@H](O[C@@H]8[C@@H](O)[C@H](O[C@H]9[C@H](O)[C@@H](CO)O[C@@H](O[C@@H]%10[C@H](O)[C@@H](O)[C@H](O)O[C@@H]%10CO)[C@@H]9O[C@@H]9O[C@H](CO)[C@H](O)[C@H](O)[C@H]9O)O[C@H](CO)[C@H]8O)[C@H](O)[C@@H](O[C@@H]8O[C@H](CO[C@@H]9O[C@@H](CO)[C@H](O)[C@H]9O)[C@@H](O)[C@H](O)[C@H]8O)[C@@H]7O)O[C@H]6CO)[C@H](O)C[C@]5(C)[C@H]4CC[C@]3(C)[C@H]1[C@@H]2C [ORCHIDASTROSIDE E] | 7 | 7
2 | C[C@H]1CC[C@@]2(OC1)O[C@H]1C[C@H]3[C@@H]4CC[C@H]5C[C@@H](O[C@@H]6[C@@H](O)[C@H](OC[C@H]7O[C@@H](O[C@@H]8[C@@H](O)[C@H](O[C@H]9[C@H](O)[C@@H](CO)O[C@@H](O[C@@H]%10[C@H](O)[C@@H](O[C@@H]%11O[C@@H](C)[C@H](O)[C@@H](O)[C@H]%11O)[C@H](O)O[C@@H]%10CO)[C@@H]9O[C@@H]9OC[C@H](O)[C@H](O)[C@H]9O)OC[C@H]8O)[C@H](O)[C@@H](O[C@@H]8O[C@H](CO[C@@H]9O[C@@H](CO)[C@H](O)[C@H]9O)[C@@H](O)[C@H](O)[C@H]8O)[C@@H]7O)O[C@H]6CO)CC[C@]5(C)[C@H]4CC[C@]3(C)[C@H]1[C@@H]2C [ORCHIDASTROSIDE C] | 3.6 | 1.35
3 | C[C@H]1CC[C@@]2(OC1)O[C@H]1C[C@H]3[C@@H]4CC[C@H]5C[C@@H](O[C@@H]6[C@@H](O)[C@H](OC[C@H]7O[C@@H](O[C@@H]8[C@@H](O)[C@H](O[C@H]9[C@H](O)[C@@H](CO)O[C@@H](O[C@@H]%10[C@H](O)[C@@H](O)[C@H](O)O[C@@H]%10CO)[C@@H]9O[C@@H]9O[C@H](CO)[C@H](O)[C@H](O)[C@H]9O)O[C@H](CO)[C@H]8O)[C@H](O)[C@@H](O[C@@H]8OC[C@@H](O)[C@H](O)[C@H]8O)[C@@H]7O)O[C@H]6CO)[C@H](O)C[C@]5(C)[C@H]4CC[C@]3(C)[C@H]1[C@@H]2C [ORCHIDASTROSIDE F] | 8.87 | 2.12
